Test: xn = mol fraction of the nth substance listed
Conditions: Gas, Vibrating tube method

S [hydrogen sulfide] + C
Conditions | mass density [kg/m3]
273.16 K, 19608 kPa, x2 = 0.714 | 336.94
273.16 K, 22152 kPa, x2 = 0.714 | 354.18
273.16 K, 22483 kPa, x2 = 0.714 | 356.27
273.17 K, 12519 kPa, x2 = 0.8197 | 177.81
273.18 K, 22828 kPa, x2 = 0.714 | 358.14
273.19 K, 21199 kPa, x2 = 0.714 | 347.78
273.19 K, 24981 kPa, x2 = 0.714 | 368.95
273.2 K, 20623 kPa, x2 = 0.714 | 344.02
273.2 K, 23590 kPa, x2 = 0.714 | 362.19
273.21 K, 209 kPa, x2 = 0.8685 | 1.7
273.21 K, 648 kPa, x2 = 0.8685 | 5.39
273.21 K, 21506 kPa, x2 = 0.714 | 349.84
273.22 K, 26410 kPa, x2 = 0.714 | 375.25
273.23 K, 20100 kPa, x2 = 0.714 | 340.42
273.23 K, 25533 kPa, x2 = 0.714 | 371.48
273.24 K, 1167 kPa, x2 = 0.8685 | 10
273.24 K, 1761 kPa, x2 = 0.8685 | 15.44
273.24 K, 27020 kPa, x2 = 0.714 | 377.85
273.25 K, 2240 kPa, x2 = 0.8685 | 19.97
273.25 K, 3776 kPa, x2 = 0.8685 | 35.41
273.25 K, 11361 kPa, x2 = 0.8685 | 140.37
273.25 K, 24591 kPa, x2 = 0.714 | 367.01
273.25 K, 26031 kPa, x2 = 0.714 | 373.67
273.25 K, 30481 kPa, x2 = 0.8685 | 300.13
273.26 K, 2770 kPa, x2 = 0.8685 | 25.12
273.26 K, 4666 kPa, x2 = 0.8685 | 45.13
273.26 K, 5086 kPa, x2 = 0.8685 | 49.93
273.26 K, 11062 kPa, x2 = 0.8685 | 135.65
273.26 K, 11726 kPa, x2 = 0.8685 | 146.08
273.26 K, 12002 kPa, x2 = 0.8685 | 150.33
273.26 K, 12322 kPa, x2 = 0.8685 | 155.19
273.26 K, 12637 kPa, x2 = 0.8685 | 159.86
273.26 K, 13040 kPa, x2 = 0.8685 | 165.72
273.26 K, 27255 kPa, x2 = 0.8685 | 285.03
273.26 K, 28276 kPa, x2 = 0.8685 | 290.05
273.26 K, 29372 kPa, x2 = 0.8685 | 295.19
273.27 K, 3280 kPa, x2 = 0.8685 | 30.25
273.27 K, 4207 kPa, x2 = 0.8685 | 40.03
273.27 K, 4225 kPa, x2 = 0.8685 | 40.23
273.27 K, 9149 kPa, x2 = 0.8685 | 105.29
273.27 K, 9851 kPa, x2 = 0.8685 | 116.33
273.27 K, 13466 kPa, x2 = 0.8685 | 171.7
273.27 K, 13771 kPa, x2 = 0.8685 | 175.85
273.27 K, 24569 kPa, x2 = 0.8685 | 270.52
273.27 K, 25361 kPa, x2 = 0.8685 | 275.02
273.27 K, 26319 kPa, x2 = 0.8685 | 280.21
273.28 K, 5512 kPa, x2 = 0.8685 | 54.98
273.28 K, 5933 kPa, x2 = 0.8685 | 60.12
273.28 K, 8496 kPa, x2 = 0.8685 | 95.31
273.28 K, 9596 kPa, x2 = 0.8685 | 112.28
273.28 K, 10137 kPa, x2 = 0.8685 | 120.88
273.29 K, 8136 kPa, x2 = 0.8685 | 89.96
273.29 K, 8809 kPa, x2 = 0.8685 | 100.05
273.29 K, 10446 kPa, x2 = 0.8685 | 125.82
273.29 K, 10749 kPa, x2 = 0.8685 | 130.66
273.29 K, 23690 kPa, x2 = 0.8685 | 265.29
273.3 K, 6333 kPa, x2 = 0.8685 | 65.17
273.3 K, 14847 kPa, x2 = 0.8685 | 189.62
273.31 K, 6712 kPa, x2 = 0.8685 | 70.1
273.31 K, 7200 kPa, x2 = 0.8685 | 76.68
273.31 K, 7483 kPa, x2 = 0.8685 | 80.6
273.31 K, 7817 kPa, x2 = 0.8685 | 85.33
273.31 K, 15329 kPa, x2 = 0.8685 | 195.37
273.31 K, 22905 kPa, x2 = 0.8685 | 260.37
273.32 K, 15811 kPa, x2 = 0.8685 | 200.85
273.32 K, 16120 kPa, x2 = 0.8685 | 204.24
273.32 K, 16817 kPa, x2 = 0.8685 | 211.55
273.33 K, 17352 kPa, x2 = 0.8685 | 216.85
273.33 K, 21405 kPa, x2 = 0.8685 | 250.29
273.34 K, 17978 kPa, x2 = 0.8685 | 222.75
273.34 K, 18233 kPa, x2 = 0.8685 | 225.06
273.35 K, 18773 kPa, x2 = 0.8685 | 229.81
273.35 K, 19531 kPa, x2 = 0.8685 | 236.12
273.36 K, 20692 kPa, x2 = 0.8685 | 245.12
273.37 K, 20048 kPa, x2 = 0.8685 | 240.23
273.37 K, 24085 kPa, x2 = 0.714 | 364.7
293.18 K, 239 kPa, x2 = 0.8685 | 1.86
293.18 K, 469 kPa, x2 = 0.8685 | 3.71
293.18 K, 2890 kPa, x2 = 0.8685 | 25.81
293.18 K, 8263 kPa, x2 = 0.8685 | 79.99
293.18 K, 8722 kPa, x2 = 0.8685 | 85.68
293.18 K, 9972 kPa, x2 = 0.8685 | 100.39
293.18 K, 12003 kPa, x2 = 0.8685 | 124.94
293.18 K, 12415 kPa, x2 = 0.8685 | 130.08
293.18 K, 12830 kPa, x2 = 0.8685 | 135.13
293.18 K, 13726 kPa, x2 = 0.8685 | 145.96
293.19 K, 792 kPa, x2 = 0.8685 | 6.46
293.19 K, 1341 kPa, x2 = 0.8685 | 11.22
293.19 K, 2300 kPa, x2 = 0.8685 | 20.14
293.19 K, 3396 kPa, x2 = 0.8685 | 30.35
293.19 K, 3988 kPa, x2 = 0.8685 | 35.82
293.19 K, 4428 kPa, x2 = 0.8685 | 40.25
293.19 K, 6909 kPa, x2 = 0.8685 | 65.4
293.19 K, 7335 kPa, x2 = 0.8685 | 70.05
293.19 K, 7786 kPa, x2 = 0.8685 | 74.96
293.19 K, 9097 kPa, x2 = 0.8685 | 90.09
293.19 K, 9534 kPa, x2 = 0.8685 | 95.16
293.19 K, 10368 kPa, x2 = 0.8685 | 105.2
293.19 K, 10794 kPa, x2 = 0.8685 | 110.28
293.19 K, 11183 kPa, x2 = 0.8685 | 115.06
293.19 K, 11608 kPa, x2 = 0.8685 | 120.16
293.19 K, 13230 kPa, x2 = 0.8685 | 140.02
293.19 K, 16228 kPa, x2 = 0.8685 | 174.96
293.19 K, 16699 kPa, x2 = 0.8685 | 180.07
293.19 K, 17682 kPa, x2 = 0.8685 | 190.29
293.2 K, 1820 kPa, x2 = 0.8685 | 15.41
293.2 K, 4887 kPa, x2 = 0.8685 | 44.78
293.2 K, 5494 kPa, x2 = 0.8685 | 50.99
293.2 K, 5964 kPa, x2 = 0.8685 | 55.59
293.2 K, 6411 kPa, x2 = 0.8685 | 60.21
293.2 K, 14242 kPa, x2 = 0.8685 | 152.42
293.2 K, 14579 kPa, x2 = 0.8685 | 156.48
293.2 K, 14924 kPa, x2 = 0.8685 | 160.62
293.2 K, 15365 kPa, x2 = 0.8685 | 165.51
293.2 K, 15806 kPa, x2 = 0.8685 | 170.31
293.2 K, 17183 kPa, x2 = 0.8685 | 185.14
293.2 K, 18163 kPa, x2 = 0.8685 | 195.16
293.2 K, 20932 kPa, x2 = 0.8685 | 220.42
293.2 K, 21495 kPa, x2 = 0.8685 | 224.99
293.2 K, 27629 kPa, x2 = 0.8685 | 265.96
293.2 K, 28496 kPa, x2 = 0.8685 | 270.59
293.21 K, 1117 kPa, x2 = 0.8685 | 9.2
293.21 K, 23505 kPa, x2 = 0.8685 | 240.2
293.21 K, 25865 kPa, x2 = 0.8685 | 255.77
293.21 K, 26669 kPa, x2 = 0.8685 | 260.49
293.21 K, 29415 kPa, x2 = 0.8685 | 275.27
293.21 K, 29995 kPa, x2 = 0.8685 | 278.16
293.21 K, 30419 kPa, x2 = 0.8685 | 280.17
293.22 K, 20355 kPa, x2 = 0.8685 | 215.54
293.22 K, 24254 kPa, x2 = 0.8685 | 245.19
293.22 K, 25052 kPa, x2 = 0.8685 | 250.52
